Assay results from PMC9570088, “Phytochemicals with Chemopreventive Activity Obtained from the Thai Medicinal Plant Mammea siamensis (Miq.) T. Anders.: Isolation and Structure Determination of New Prenylcoumarins with Inhibitory Activity against Aromatase” (International Journal of Molecular Sciences, 2022).
Entries after “also recorded” stand apart in the source; their conditions may differ. Like-named read-outs stand apart in the source and are kept apart here.

Tests used:
[1] = molecular target: T1, human recombinant aromatase (Homo sapiens, UniProt P11511); experiment: Kinetic analysis of inhibitory activity against human recombinant aromatase using Lineweaver-Burk plots (testosterone substrate, estradiol EIA); format: biochemical; conditions: for mode of inhibition of aromatase: Lineweaver–Burk plots; for Ki: testosterone 0.4–4 µM as substrate, secondary plot of Lineweaver–Burk, N = 3
T1 construct: purchased BD Biosciences (Heidelberg, Germany)
T1 sequence (P11511 1-503): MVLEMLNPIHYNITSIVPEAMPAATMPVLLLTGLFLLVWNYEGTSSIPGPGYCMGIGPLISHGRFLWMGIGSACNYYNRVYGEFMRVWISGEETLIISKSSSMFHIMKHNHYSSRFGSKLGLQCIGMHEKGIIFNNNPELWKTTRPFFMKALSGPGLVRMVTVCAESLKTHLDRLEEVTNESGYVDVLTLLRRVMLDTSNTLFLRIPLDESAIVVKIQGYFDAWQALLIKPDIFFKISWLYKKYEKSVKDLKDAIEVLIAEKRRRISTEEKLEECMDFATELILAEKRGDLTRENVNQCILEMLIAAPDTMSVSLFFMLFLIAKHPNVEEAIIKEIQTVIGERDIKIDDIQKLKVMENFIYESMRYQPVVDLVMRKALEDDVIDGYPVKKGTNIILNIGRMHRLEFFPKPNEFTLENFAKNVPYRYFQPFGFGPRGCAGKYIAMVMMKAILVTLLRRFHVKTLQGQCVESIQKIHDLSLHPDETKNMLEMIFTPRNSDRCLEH
Excerpt: In the assay system, we fixed the enzyme concentration, changed the substrate concentration, and obtained the kinetic parameters of the enzyme-catalyzed reaction using Lineweaver–Burk double reciprocal plot 1/[V] vs. 1/[S]. The inhibition constant Ki indicates the potency of an inhibitor and equals the concentration required to produce half-maximal inhibition. The Ki value was obtained from the intersection of the secondary plot with the x-axis (apparent Km/Vmax vs. inhibitor).
Experiments were performed using a previously described protocol, modified by using various concentrations of testosterone (0.4–4 µM) as substrates instead of DBF and the plate was heated at 37 °C for 15 min. After the reaction, the enzyme was inactivated by heating in a boiling water bath for 2 min. An estradiol EIA kit (Oxford Biomedical Research, Inc., Oxford, MI, USA) was used to develop an estradiol standard curve to determine the concentration of estradiol produced and to correlate the concentration of estradiol with the reaction velocity. The mode of inhibition was analyzed using the Lineweaver–Burk plot of the inverse of the reaction velocity of estradiol plotted on the vertical axis and the inverse of the final concentration of the substrate on the horizontal axis, with and without the test substance (Figure S27).

[2] = molecular target: T1, human recombinant aromatase; experiment: Inhibitory effects against human recombinant aromatase (DBF fluorescence assay); format: biochemical; conditions: for IC50: substrate DBF, mean, N = 3
Experimental: Dibenzylfluorescein (DBF) and human CYP19 + P450 reductase SUPERSOMES (human recombinant aromatase) were purchased from BD Biosciences (Heidelberg, Germany) and testosterone from Tokyo Chemical Industry Co., Ltd. (Tokyo, Japan). The other chemicals used in this study were purchased from Wako Pure Chemical Industries, Co., Ltd. (Osaka, Japan).
The experiments were performed according to a previously described method. Briefly, a test sample was dissolved in dimethyl sulfoxide (DMSO), and the solution was diluted with potassium phosphate buffer (50 mM, pH 7.4) containing MgCl2 (0.5 mM) to obtain the test sample solution (concentration of DMSO: 2%). An enzyme/substrate solution in the buffer (20 µL, 1.6 µM DBF, 8 nM human recombinant aromatase) and the test sample solution (20 µL) were mixed in a 96-well half-area black microplate (Greiner Bio-One, Frickenhausen, Germany) at 37 °C for 10 min. The enzymatic reaction was initiated by adding NADPH solution (40 µL, 500 µM) at 37 °C for 30 min. After 30 min of incubation, NaOH (30 µL, 2 mM) was added, and the reaction mixture was incubated at 37 °C for 2 h to induce fluorescent signals (final DMSO concentration, 0.5%; aromatase, 2 nM; and NADPH, 250 µM). Fluorescence was measured using a fluorescence microplate reader (SH-9000, CORONA […] Co., Ltd., Ibaraki, Japan) at an excitation wavelength of 435 nm and emission wavelength of 535 nm. Experiments were performed in triplicate, and the IC50 values were determined graphically.

[3] = molecular target: T1, human recombinant aromatase; design: method as in PMID 27373643; conditions: value marked as from earlier report; read-out: IC50 against human recombinant aromatase; cited from earlier work

Row | Compound | Ki [1] [µM] | IC50 [2] [µM] | IC50 [3] [µM] | other results
1 | CCCC(=O)c1c(O)c2c(c3c(CCC)cc(=O)oc13)OC(C)(C)C=C2 [compound 1, mammeasin K] | 3.4 | 7.6 | – | mode of inhibition of aromatase [1]: competitively inhibit; also recorded: competitive inhibition; also recorded: competitive inhibitors
2 | CCCC(=O)c1c(O)c2c(c3c(-c4ccccc4)cc(=O)oc13)OC(C)(C)C=C2 [compound 2, mammeasin L] | – | 20.7 | – | –
3 | CCCC(=O)c1c2c(c3oc(=O)cc(-c4ccccc4)c3c1O)C(OC)C(C(C)(C)O)O2 (stereo not shown) [compound 3, mammeasin M] | – | > 100 | – | inhibition at 100 µM ([2]; 100 µM, value in parentheses): 43.4%
4 | C=C(C)c1cc2c(o1)c(C(=O)CCC)c(O)c1c(-c3ccccc3)cc(=O)oc12 [compound 4, mammeasin N] | 2.6 | 12 | – | mode of inhibition of aromatase [1]: competitive inhibition; also recorded: competitive inhibitors
5 | C=C(C)c1cc2c(o1)c(C(=O)CC(C)C)c(O)c1c(-c3ccccc3)cc(=O)oc12 [compound 5, mammeasin O] | 2.3 | 9.1 | – | mode of inhibition of aromatase [1]: competitively inhibit; also recorded: competitive inhibition; also recorded: competitive inhibitors
6 | CCCC(=O)c1c(O)c(C/C=C(\C)CCC=C(C)C)c(O)c2c([C@H](CC)OC(C)=O)cc(=O)oc12 [compound 6, Mammeasin A] | 5.1 | – | 8.7 | –
7 | CC[C@H](OC(C)=O)c1cc(=O)oc2c(C(=O)CC(C)C)c(O)c(C/C=C(\C)CCC=C(C)C)c(O)c12 [compound 7, Mammeasin B] | 1.3 | – | 4.1 | mode of inhibition of aromatase [1]: competitive inhibition; also recorded: competitive inhibitors
8 | CC(C)=CCC/C(C)=C/Cc1c(O)c(C(=O)C(C)C)c2oc(=O)cc3c2c1OC(C)C3 (stereo not shown) [compound 8, Mammeasin C] | 2.8 | – | 2.7 | mode of inhibition of aromatase [1]: competitive inhibition; also recorded: competitive inhibitors
9 | CCCC(=O)c1c(O)c(C/C=C(\C)CCC=C(C)C)c2c3c(cc(=O)oc13)CC(C)O2 (stereo not shown) [compound 9, Mammeasin D] | 4.3 | – | 3.6 | –
10 | CC[C@H](O)c1cc(=O)oc2c(C(=O)CC(C)C)c(O)c3c(c12)OC(C)(CCC=C(C)C)C=C3 (stereo partly shown) [compound 10, Mammeasin E] | 7.1 | 11.1 | – | –
11 | CCCC(=O)c1c(O)c2c(c3c(CCC)cc(=O)oc13)OC(C)(CCC=C(C)C)C=C2 (stereo not shown) [compound 12, Mammeasin G] | – | 21.3 | – | –
12 | CCCc1cc(=O)oc2c(C(=O)C(C)CC)c(O)c3c(c12)OC(C)(CCC=C(C)C)C=C3 (stereo not shown) [compound 13, Mammeasin H] | – | 17.9 | – | –
13 | C/C=C/c1cc(=O)oc2c(C(=O)CCC)c(O)c3c(c12)OC(C)(CCC=C(C)C)C=C3 (stereo not shown) [compound 14, Mammeasin I] | – | 21.3 | – | –
14 | CCCc1cc(=O)oc2c3c(c(C(=O)C(C)CC)c(O)c12)OC(C)(CCC=C(C)C)C=C3 (stereo not shown) [compound 15, Mammeasin J] | – | 23.4 | – | –
15 | CCC(C)C(=O)c1c(O)c(C/C=C(\C)CCC=C(C)C)c(O)c2c([C@H](CC)OC(C)=O)cc(=O)oc12 (stereo partly shown) [compound 16, Surangin B] | 1.3 | – | 9.8 | mode of inhibition of aromatase [1]: competitive inhibition; also recorded: competitive inhibitors
16 | CCC(C)C(=O)c1c(O)c(C/C=C(\C)CCC=C(C)C)c(O)c2c([C@@H](O)CC)cc(=O)oc12 (stereo partly shown) [compound 17, Surangin C] | 2.6 | – | 8.8 | mode of inhibition of aromatase [1]: competitive inhibition; also recorded: competitive inhibitors
17 | CC[C@H](O)c1cc(=O)oc2c(C(=O)CC(C)C)c(O)c(C/C=C(\C)CCC=C(C)C)c(O)c12 [compound 18, Surangin D] | – | – | 9.8 | –
18 | CCCC(=O)c1c(O)c(C/C=C(\C)CCC=C(C)C)c(O)c2c([C@@H](O)CC)cc(=O)oc12 [compound 19, Kayeassamin A] | – | 10 | – | –
19 | CCCC(=O)c1c(O)c(CC=C(C)C)c2oc(=O)cc([C@@H](O)CC)c2c1O [compound 20, Kayaessamin E] | – | – | 14.9 | –

Row | Compound | Ki [1] [µM] | IC50 [2] [µM] | IC50 [3] [µM] | other results
20 | CCC(C)C(=O)c1c(O)c(CC=C(C)C)c2oc(=O)cc([C@@H](O)CC)c2c1O (stereo partly shown) [compound 21, Kayaessamin F] | – | – | 19.7 | –
21 | CC[C@H](O)c1cc(=O)oc2c(CC=C(C)C)c(O)c(C(=O)CC(C)C)c(O)c12 [compound 22, Kayaessamin G] | – | – | 27.8 | –
22 | CC(C)=CCc1c(O)c(C(=O)CC(C)C)c(O)c2c(-c3ccccc3)cc(=O)oc12 [compound 24, Mammea A/AA] | 13.7 | – | 6.9 | –
23 | CCC(C)C(=O)c1c(O)c(CC=C(C)C)c2oc(=O)cc(-c3ccccc3)c2c1O (stereo not shown) [compound 25, Mammea A/AB] | 8.1 | – | 8.6 | –
24 | CCCC(=O)c1c(O)c(CC=C(C)C)c2oc(=O)cc(-c3ccccc3)c2c1O [compound 26, Mammea A/AC] | – | – | 13.7 | –
25 | CC(C)=CCc1c(O)c(C(=O)C(C)C)c(O)c2c(-c3ccccc3)cc(=O)oc12 [compound 27, Mammea A/AD] | – | – | 11.3 | –
26 | CC(C)CC(=O)c1c2c(c3oc(=O)cc(-c4ccccc4)c3c1O)C=CC(C)(C)O2 [compound 28, Mammea A/AA cyclo D] | 1.2 | – | 7.2 | mode of inhibition of aromatase [1]: competitive inhibition; also recorded: competitive inhibitors
27 | CCC(C)C(=O)c1c2c(c3oc(=O)cc(-c4ccccc4)c3c1O)C=CC(C)(C)O2 (stereo not shown) [compound 29, Mammea A/AB cyclo D] | – | – | 24.1 | –
28 | CCCC(=O)c1c2c(c3oc(=O)cc(-c4ccccc4)c3c1O)C=CC(C)(C)O2 [compound 30, Mammea A/AC cyclo D] | – | – | 35 | –
29 | CCCc1cc(=O)oc2c3c(c(C(=O)C(C)CC)c(O)c12)OC(C)(C)C=C3 (stereo not shown) [compound 31, Mammea B/AB cyclo D] | 0.84 | – | 3.1 | mode of inhibition of aromatase [1]: competitive inhibitory activity; also recorded: competitive inhibition; also recorded: competitive inhibitors
30 | CCCC(=O)c1c2c(c3oc(=O)cc(CCC)c3c1O)C=CC(C)(C)O2 [compound 32, Mammea B/AC cyclo D] | – | – | 24.6 | –
31 | CCCC(=O)c1c(O)c2c(c3c(C(CC)OC(C)=O)cc(=O)oc13)OC(C)(C)C=C2 (stereo not shown) [compound 33, Mammea E/BC cyclo D] | 2.3 | – | 11.5 | mode of inhibition of aromatase [1]: competitive inhibition; also recorded: competitive inhibitors
32 | CCC(OC(C)=O)c1cc(=O)oc2c(C(=O)C(C)C)c(O)c3c(c12)OC(C)(C)C=C3 (stereo not shown) [compound 34, Mammea E/BD cyclo D] | – | 21.1 | – | –
33 | CCCC(=O)c1c(O)c2c(c3c([C@@H](O)CC)cc(=O)oc13)OC(C)(C)C=C2 [compound 35, Deacetylammea E/BC cyclo D] | – | – | 16.6 | –
34 | CC[C@H](OC(C)=O)c1cc(=O)oc2c(C(=O)CC(C)C)c(O)c(CC=C(C)C)c(O)c12 [compound 36, Mammea E/BA] | – | – | 16.6 | –
35 | CCC(C)C(=O)c1c(O)c(CC=C(C)C)c(O)c2c(C(CC)OC(C)=O)cc(=O)oc12 (stereo not shown) [compound 37, Mammea E/BB] | – | – | 18.6 | –
36 | CCCC(=O)c1c2c(c3oc(=O)cc(-c4ccccc4)c3c1O)CC(C(C)(C)O)O2 (stereo not shown) [compound 40, Mammea A/AC cyclo F] | – | 19.9 | – | –
37 | CC[C@H](O)c1cc(=O)oc2c3c(c(C(=O)CC(C)C)c(O)c12)OC(C)(C)C=C3 [compound 41, Deacetylammea E/AA cyclo D] | – | 19.3 | – | –
38 | CCC(C)C(=O)c1c(O)c2c(c3c([C@@H](O)CC)cc(=O)oc13)OC(C)(C)C=C2 (stereo partly shown) [compound 42, Deacetylammea E/BB cyclo D] | – | 12.1 | – | –
